The results in this text go back to the NIST ThermoML archive (doi:10.1016/j.jct.2005.12.005).

The conditions of data set [1]: 101 kPa, Liquid; for speed of sound: Sing-around technique in a fixed-path interferometer.
Data set [2] in a line: refractive index (Na D-line) (dimensionless). Conditions: 101.33 kPa, Liquid.

By mass density is commonly meant the mass of a sample divided by its volume. In general, viscosity refers to the resistance of a fluid to flow. As a reminder, the speed of sound is the propagation velocity of pressure waves in the medium. A word on the refractive index: it is the speed of light in vacuum divided by its phase velocity in the sample.

Numbers after ± are expanded uncertainties.

Turning to `Cc1ccc(C)cc1` [1,4-dimethylbenzene], the mass density in data set [1] (298.15 K) is listed as 856.7 ± 0.9 kg/m3; in data set [1] (303.15 K) it was 852.3 ± 0.9 kg/m3; in data set [1] (308.15 K), 848 ± 0.9 kg/m3. The values for the viscosity in data set [1] (298.15 K), in data set [1] (303.15 K) and in data set [1] (308.15 K) were 0.611 ± 0.009 mPa·s, 0.572 ± 0.009 mPa·s and 0.54 ± 0.008 mPa·s, respectively. In addition, the speed of sound in data set [1] (298.15 K) is reported as 1326 ± 6 m/s. The refractive index in data set [2] (298.15 K) was 1.4926 ± 0.001; in data set [2] (303.15 K), 1.4893 ± 0.001; in data set [2] (308.15 K), 1.4867 ± 0.001.
Take `c1ccccc1` [benzene]: the mass density came out at 873.4 ± 0.5 kg/m3 in data set [1] (298.15 K), 868.1 ± 0.5 kg/m3 in data set [1] (303.15 K) and 862.7 ± 0.5 kg/m3 in data set [1] (308.15 K). The viscosity in data set [1] (298.15 K) is reported as 0.602 ± 0.008 mPa·s; in data set [1] (303.15 K), 0.56 ± 0.008 mPa·s; in data set [1] (308.15 K), 0.523 ± 0.007 mPa·s. Further, in data set [1] (298.15 K), the speed of sound is 1302 ± 5 m/s. Moreover, the refractive index in data set [2] (298.15 K) is reported as 1.4971 ± 0.0009; in data set [2] (303.15 K) it was 1.4936 ± 0.0009; in data set [2] (308.15 K) it was 1.4903 ± 0.0009.
With `Cc1cc(C)cc(C)c1` [1,3,5-trimethylbenzene], the mass density in data set [1] (298.15 K) is listed as 861.2 ± 1.1 kg/m3; in data set [1] (303.15 K), 857.1 ± 1.1 kg/m3; in data set [1] (308.15 K), 853 ± 1.1 kg/m3. Also, the viscosity in data set [1] (298.15 K) is listed as 0.667 ± 0.011 mPa·s; in data set [1] (303.15 K), 0.622 ± 0.01 mPa·s; in data set [1] (308.15 K), 0.586 ± 0.01 mPa·s. Also, the speed of sound in data set [1] (298.15 K) is 1346 ± 6 m/s. For the same compound, the refractive index in data set [2] (298.15 K) was 1.496 ± 0.0025; in data set [2] (303.15 K), 1.4936 ± 0.0025; in data set [2] (308.15 K) it was 1.4913 ± 0.0025.
